Results reported in patent US9012407B2, “Therapies which act on neuropeptide S receptors” (The Regents of the University of California, priority 2004, dated 2015).

Key:
[1] = tested on: human colon cancer cell line DLD-1; assay: Cell proliferation, [3H]-thymidine incorporation in DLD-1 cells (negative control line); type: cell-based; details: no NPSR transcripts
Method: (§1) Cells were seeded in 24-well plates and grown overnight to 60-70% confluency. Following 24 h serum-starvation, 2 μCi of methyl-[^3H] thymidine was added together with increasing concentrations of NPS. 500 nM PGE2 served as a positive control. After 3 h incubation cells were washed 3 times with PBS and then lysed with 0.5 N NaOH. The lysate was neutralized with 0.5 N HCl and aliquots were counted in a liquid scintillation counter for incorporated radioactivity.

NPSR Ile^107 = target: T1, NPSR Ile^107 (Homo sapiens, UniProt Q6W5P4, N107I); assay: CRE-luciferase reporter gene assay, HEK 293 cells, NPSR Ile107; type: cell-based; details: transiently transfected HEK cells
T1 construct: The Ile^107 isoform of NPSR was generated by PCR using synthetic oligonucleotides and the Quik Change Site-Directed Mutagenesis kit from Stratagene; expressed in transfected cells
T1 sequence (Q6W5P4 1-371 N107I): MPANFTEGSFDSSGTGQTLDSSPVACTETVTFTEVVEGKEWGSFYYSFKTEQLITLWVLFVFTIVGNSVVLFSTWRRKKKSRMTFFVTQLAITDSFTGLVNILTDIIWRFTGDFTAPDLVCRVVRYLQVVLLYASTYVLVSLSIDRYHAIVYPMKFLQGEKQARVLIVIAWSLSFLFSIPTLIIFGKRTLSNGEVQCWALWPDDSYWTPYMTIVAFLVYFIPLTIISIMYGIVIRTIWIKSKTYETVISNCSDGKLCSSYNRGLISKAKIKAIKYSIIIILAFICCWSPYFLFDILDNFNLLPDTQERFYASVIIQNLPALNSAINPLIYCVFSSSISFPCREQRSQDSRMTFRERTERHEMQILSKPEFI
Text: HEK 293 cells were stably transfected with a reporter gene containing 6 copies of a cAMP response element (CRE; sequence […]) in front of a luciferase reporter gene (Promega) cloned into pcDNA3.1 neo. One stable clone showing robust induction of reporter gene expression after forskolin challenge was chosen for further experiments. The different NPSR isoform cDNAs (cloned into pcDNA3.1 hygro) were transfected into these cells using lipofectamine and stable clones were selected. The same cells and procedures were also used for transient transfection. For induction of reporter gene expression cells were plated in 96-well plates and incubated with agonist for 5 hours in serum-free medium, followed by aspiration of the medium and cell lysis with 25 mM Tris-phosphate, pH 7.8, 2 mM dithiothreitol, 2 mM 1,2-diaminocyclohexane-N,N,N′,N′,-tetraacetic acid, 10% glycerol, 1% Triton X-100. After one freeze-thaw cycle aliquots of supernatant were transferred to white clear-bottom 96-well plates (Greiner) and luciferase content was quantified by bioluminescence (Luc-Screen, Applied Biosystems). Plates were counted in a scintillation counter using bioluminescence settings (MicroBeta, Wallac-Perkin Elmer).

C57Bl/6 mice [2] = assay: Locomotor activity after i.c.v. administration in naive and habituated mice; type: in vivo; details: for locomotor activity: naive and habituated mice, 60 min observation
Method: In view of the NPSR sites of expression and the prominent expression of the NPS precursor in LC area, we hypothesized that NPS may be involved in arousal and anxiety. To start this investigation, we tested the effects of NPS on locomotor activity in both naive and habituated mice (FIG. 7A).
Male C57Bl/6 mice (National Cancer Institute, Bethesda, MD), age 10-14 weeks, were group-housed (4 animals per cage) under controlled conditions (temperature 21±2° C.; relative humidity 50-60%; 12-hour light-dark cycle, lights on 6:00 AM) with free access to food and water. Prior to drug injections, mice were briefly anesthetized with halothane. NPS was dissolved in phosphate-buffered saline (PBS, pH 7.4) and injected i.c.v. (total volume: 2 μl) as described before (Laursen and Belknap, 1986). Mice were allowed to recover for 5 min and then placed in the observation apparatus.
Locomotion was monitored in rectangular plexiglass boxes (60×40×50 cm). Horizontal activity was measured over 60 min by 18×12 infrared sensors placed 2 cm above the floor. A second row of sensors at 8 cm above the floor was used to record rearing events. The imaginary central zone was defined as a 30×20 cm rectangle in the middle of each observation area. Data were collected using MatLab (Mathworks, Natick, Mass.). Experimental procedures for open field, elevated plus-maze and light-dark box were described previously (Köster et al., 1999). Marble burying was measured in mice placed individually in polypropylene cages (30×18×12 cm) containing 18 glass marbles (1.5 cm diameter) evenly spaced on 5 cm deep rodent bedding (bed-o'cob, The Andersons Inc., Maumee, Ohio) (Njung'e and Handley, 1991). No food or water was present during the observation period. Cages were covered with a metal grid and the number of marbles covered at least two-thirds was counted after 30 min.

Sprague-Dawley rats = assay: Sleep-wake EEG/EMG recording after i.c.v. administration in rats; type: in vivo; details: for share of first hour of recording spent in wakefulness: saline 45%
Method: Rats were implanted with a standard set of electrodes and electroencephalograms (EEG) and electromyograms (EMG) were recorded after i.c.v. administration of NPS. Polygraphic recordings of vigilance states indicate that rats treated with 0.1 nmole and 1.0 nmole of NPS spent up to 69% and 87%, respectively, of the first hour of recording in wakefulness, compared to 45% for saline treatment (F2,21=16.80; p<0.01) (FIG. 7B).
For sleep studies, adult male Sprague-Dawley rats (250-300 g) were implanted under halothane anesthesia (1-2%) with a stainless steel cannula for i.c.v. administration and a standard set of stainless steel screw electrodes for chronic sleep recordings as reported previously (Bourgin et al., 2000). Rats were injected with NPS or vehicle (5 μl) at the beginning of the light cycle and cortical activity was recorded over 6 hours. All animal experiments had been approved by the local IACUC committee and were done in accordance with federal regulations and guidelines on animal experimentation.

[3] = tested on: Colo205 human colon cancer cells; assay: Cell proliferation, [3H]-thymidine incorporation in Colo205 cells; type: cell-based
Method: as §1

C57Bl/6 mice [4] = assay: Marble-burying paradigm; type: in vivo; details: 30 min observation, 18 marbles per cage, i.c.v.
Text: Many anxiolytic drugs increase exploratory activity in the open field, light-dark box or elevated plus maze paradigms. However, compounds stimulating locomotion could produce false-positive effects in these tests because the enhanced exploration could be secondary to the increase in general activity. In order to validate the observed anxiolytic-like effects of NPS, we tested increasing doses of NPS in the marble-burying paradigm. Mice tend to bury objects such as glass marbles present in their environment. Anxiolytic drugs such as benzodiazepines reduce the number of marbles buried over a fixed period of time. […]
Locomotion was monitored in rectangular plexiglass boxes (60×40×50 cm). Horizontal activity was measured over 60 min by 18×12 infrared sensors placed 2 cm above the floor. […] Marble burying was measured in mice placed individually in polypropylene cages (30×18×12 cm) containing 18 glass marbles (1.5 cm diameter) evenly spaced on 5 cm deep rodent bedding (bed-o'cob, The Andersons Inc., Maumee, Ohio) (Njung'e and Handley, 1991). […] Cages were covered with a metal grid and the number of marbles covered at least two-thirds was counted after 30 min.

[5] = i.c.v., rats, compared with saline

“NPS: neuropeptide S, endogenous NPSR ligand; species of the peptide not stated at the place of the result (SFRNGVGTGMKKTSFQRAKS)” was tested, and the thymidine incorporation [1] was “no NPS-dependent thymidine incorporation”, the “maximum of reporter gene expression relative to NPSR WT or NPSR C-alt” value (NPSR Ile^107) was “about 2 fold” and the locomotor activity (C57Bl/6 mice [2]; 0.1 nmole i.c.v.) was “significant increase”. For the same substance, the locomotor activity (C57Bl/6 mice [2]; 1 nmole i.c.v.) was “significant increase”, the “total distance traveled, percentage of time moving, number of rearing events and center entries” value (C57Bl/6 mice [2]; 0.1 and 1 nmole i.c.v., mice) was “significantly increased” and the “share of first hour of recording spent in wakefulness” value (Sprague-Dawley rats; 0.1 nmole i.c.v., rats) was “up to 69%”. For the same substance, the “share of first hour of recording spent in wakefulness” value (Sprague-Dawley rats; 1.0 nmole i.c.v., rats) was at most 87%, the “rebound in amount of non-REM sleep, increase vs. saline” value (Sprague-Dawley rats; fourth hour post injection, rats) was 48% and the “mean duration of wakefulness episodes” value (Sprague-Dawley rats; i.c.v., rats, compared to saline group) was “significant increase”. For the same substance, the “amount of REM sleep” value (Sprague-Dawley rats; [5]) was “significantly reduced”, the “amount of slow wave sleep stage 1 (SWS1)” value (Sprague-Dawley rats; [5]) was “significantly reduced” and the “amount of slow wave sleep stage 2 (SWS2)” value (Sprague-Dawley rats; [5]) was “significantly reduced”. For the same substance, the “rebound in amount of non-REM sleep, increase vs. saline” value (Sprague-Dawley rats; second hour post injection, rats) was 20%, the “duration of arousal effect” value (Sprague-Dawley rats; single i.c.v. administration) was “within the first hour post injection” and the “doses producing maximal thymidine incorporation” value [3] was 0.1 to 10 nM. The thymidine incorporation ([3]; 3 h incubation) was “dose-dependent stimulation” and the “number of marbles buried” value (C57Bl/6 mice [4]) was “dose-dependently reduced”.
